Read-outs that look alike come from different tables or passages of the source.
Tests used:
Assay in all cases: Kinase activity test (ReactionBiology), % enzyme activity relative to DMSO
Type in all cases: biochemical
NEK2 = molecular target: T1, NEK2 (Homo sapiens, UniProt P51955); conditions: NEK2;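 further: FDA-approved drugs chosen by structure-based repositioning, each screened at 10 or 1 µM for kinase activity, expressed as percent of DMSO controls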
T1 construct: purchased ReactionBiology
T1 sequence (P51955 1-445): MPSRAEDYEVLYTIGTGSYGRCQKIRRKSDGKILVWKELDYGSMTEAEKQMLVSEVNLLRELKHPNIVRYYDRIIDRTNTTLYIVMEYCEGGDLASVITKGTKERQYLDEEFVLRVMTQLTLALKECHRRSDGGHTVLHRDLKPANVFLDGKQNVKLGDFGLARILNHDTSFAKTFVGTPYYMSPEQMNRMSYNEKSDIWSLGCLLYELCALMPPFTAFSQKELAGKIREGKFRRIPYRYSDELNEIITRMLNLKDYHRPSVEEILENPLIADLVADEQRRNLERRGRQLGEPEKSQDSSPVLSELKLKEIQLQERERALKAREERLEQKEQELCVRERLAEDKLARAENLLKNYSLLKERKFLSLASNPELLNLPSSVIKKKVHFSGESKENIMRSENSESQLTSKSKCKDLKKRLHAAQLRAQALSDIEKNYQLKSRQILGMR

DAPK1 = molecular target: T2, DAPK1 (Homo sapiens, UniProt P53355); conditions: DAPK1
T2 construct: purchased ReactionBiology
T2 sequence (P53355 whole entry): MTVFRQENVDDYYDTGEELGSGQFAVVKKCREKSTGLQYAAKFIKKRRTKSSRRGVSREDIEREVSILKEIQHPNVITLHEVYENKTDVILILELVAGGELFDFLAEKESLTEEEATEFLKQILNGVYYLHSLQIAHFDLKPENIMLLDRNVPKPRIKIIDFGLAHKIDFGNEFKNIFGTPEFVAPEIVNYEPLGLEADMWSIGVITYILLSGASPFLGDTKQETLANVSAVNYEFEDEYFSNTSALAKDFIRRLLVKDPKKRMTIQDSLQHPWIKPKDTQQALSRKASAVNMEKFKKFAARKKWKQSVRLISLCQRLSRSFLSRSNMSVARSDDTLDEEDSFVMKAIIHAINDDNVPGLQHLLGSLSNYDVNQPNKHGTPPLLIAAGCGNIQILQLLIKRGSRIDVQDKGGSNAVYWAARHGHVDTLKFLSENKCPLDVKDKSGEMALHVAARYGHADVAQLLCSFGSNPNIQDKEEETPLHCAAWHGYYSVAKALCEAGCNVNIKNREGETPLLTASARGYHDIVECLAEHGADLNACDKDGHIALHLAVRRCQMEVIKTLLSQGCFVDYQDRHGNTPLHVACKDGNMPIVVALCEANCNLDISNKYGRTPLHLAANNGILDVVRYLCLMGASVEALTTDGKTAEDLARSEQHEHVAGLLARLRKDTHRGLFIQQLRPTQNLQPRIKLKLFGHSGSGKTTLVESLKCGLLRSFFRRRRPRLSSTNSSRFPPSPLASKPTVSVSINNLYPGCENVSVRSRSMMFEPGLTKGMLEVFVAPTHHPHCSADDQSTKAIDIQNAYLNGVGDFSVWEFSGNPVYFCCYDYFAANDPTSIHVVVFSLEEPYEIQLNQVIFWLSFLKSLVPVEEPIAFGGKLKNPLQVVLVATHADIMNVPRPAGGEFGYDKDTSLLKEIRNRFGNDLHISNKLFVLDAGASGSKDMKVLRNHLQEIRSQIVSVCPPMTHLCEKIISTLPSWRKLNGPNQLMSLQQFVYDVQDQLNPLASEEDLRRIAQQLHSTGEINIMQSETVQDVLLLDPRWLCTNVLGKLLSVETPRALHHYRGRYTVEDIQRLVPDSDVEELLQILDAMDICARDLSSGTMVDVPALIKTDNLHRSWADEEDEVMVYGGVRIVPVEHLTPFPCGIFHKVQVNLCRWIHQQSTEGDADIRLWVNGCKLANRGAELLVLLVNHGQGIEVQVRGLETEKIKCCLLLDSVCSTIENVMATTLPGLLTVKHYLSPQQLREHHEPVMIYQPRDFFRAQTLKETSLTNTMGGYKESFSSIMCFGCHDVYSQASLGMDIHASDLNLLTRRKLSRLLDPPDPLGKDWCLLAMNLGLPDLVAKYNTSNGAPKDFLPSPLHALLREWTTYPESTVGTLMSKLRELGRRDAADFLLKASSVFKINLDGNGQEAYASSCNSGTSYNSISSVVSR

CK1d = molecular target: T3, CK1d (Homo sapiens, UniProt P48730); conditions: CK1d; for % Enzyme Activity (relative to DMSO controls), Data 1 / remaining activity at 1 µM: 1 uM
T3 construct: purchased ReactionBiology
T3 sequence (P48730 whole entry): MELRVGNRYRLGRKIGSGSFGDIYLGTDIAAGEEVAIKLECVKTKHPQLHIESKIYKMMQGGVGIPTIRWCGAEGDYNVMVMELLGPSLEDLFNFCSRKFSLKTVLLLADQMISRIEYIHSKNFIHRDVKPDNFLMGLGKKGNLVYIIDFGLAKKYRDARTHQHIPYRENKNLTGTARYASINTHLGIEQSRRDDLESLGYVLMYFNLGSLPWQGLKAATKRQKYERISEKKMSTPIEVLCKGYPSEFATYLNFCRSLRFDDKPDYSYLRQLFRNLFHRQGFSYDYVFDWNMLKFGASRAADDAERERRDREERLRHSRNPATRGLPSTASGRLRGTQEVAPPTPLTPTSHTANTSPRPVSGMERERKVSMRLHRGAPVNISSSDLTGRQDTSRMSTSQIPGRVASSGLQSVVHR

VEGFR2 = VEGFR2 (Homo sapiens, UniProt P35968); set-up: purchased ReactionBiology; conditions: VEGFR2; for % Enzyme Activity (relative to DMSO controls), Data 1: replicate Data 1; for % Enzyme Activity (relative to DMSO controls), Data 2: replicate Data 2;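 on all read-outs here: VEGFR2 was one member of a ten-kinase screening panel testing marketed FDA-approved drugs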
Sequence of VEGFR2 (P35968 20-1356): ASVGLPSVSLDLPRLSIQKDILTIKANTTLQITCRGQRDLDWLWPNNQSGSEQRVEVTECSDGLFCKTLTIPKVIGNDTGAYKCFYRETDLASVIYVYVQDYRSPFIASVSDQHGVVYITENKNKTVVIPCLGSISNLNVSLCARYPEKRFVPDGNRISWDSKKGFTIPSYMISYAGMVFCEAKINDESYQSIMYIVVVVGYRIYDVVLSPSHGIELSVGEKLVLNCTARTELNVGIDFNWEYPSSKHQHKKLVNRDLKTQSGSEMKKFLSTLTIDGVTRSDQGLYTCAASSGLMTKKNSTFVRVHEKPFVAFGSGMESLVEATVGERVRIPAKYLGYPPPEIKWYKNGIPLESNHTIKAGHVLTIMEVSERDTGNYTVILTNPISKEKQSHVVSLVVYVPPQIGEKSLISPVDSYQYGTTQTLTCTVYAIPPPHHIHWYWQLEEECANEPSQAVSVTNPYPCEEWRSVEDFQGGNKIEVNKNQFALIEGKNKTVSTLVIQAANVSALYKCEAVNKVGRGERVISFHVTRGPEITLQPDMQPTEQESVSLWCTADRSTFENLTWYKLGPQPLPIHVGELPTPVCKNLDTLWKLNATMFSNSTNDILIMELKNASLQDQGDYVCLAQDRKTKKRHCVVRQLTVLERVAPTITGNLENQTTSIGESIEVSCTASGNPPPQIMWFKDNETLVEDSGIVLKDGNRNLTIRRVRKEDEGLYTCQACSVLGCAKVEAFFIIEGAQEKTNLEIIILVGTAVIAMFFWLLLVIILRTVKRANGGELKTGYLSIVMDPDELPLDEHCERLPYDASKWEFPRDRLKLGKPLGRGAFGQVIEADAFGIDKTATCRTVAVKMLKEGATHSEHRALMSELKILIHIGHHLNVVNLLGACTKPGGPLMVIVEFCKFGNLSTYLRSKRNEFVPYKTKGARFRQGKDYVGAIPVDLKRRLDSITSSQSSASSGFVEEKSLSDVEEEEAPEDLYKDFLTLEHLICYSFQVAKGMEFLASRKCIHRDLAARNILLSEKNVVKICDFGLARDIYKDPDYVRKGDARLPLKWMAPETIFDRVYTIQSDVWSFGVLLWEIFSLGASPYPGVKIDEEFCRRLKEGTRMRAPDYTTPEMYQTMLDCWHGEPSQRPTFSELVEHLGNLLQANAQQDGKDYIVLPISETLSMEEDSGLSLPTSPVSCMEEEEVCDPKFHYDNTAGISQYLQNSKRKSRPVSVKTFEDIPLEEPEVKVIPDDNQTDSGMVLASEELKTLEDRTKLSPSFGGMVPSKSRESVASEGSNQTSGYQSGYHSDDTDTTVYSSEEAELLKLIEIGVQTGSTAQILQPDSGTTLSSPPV

[1] = compound at 1 uM, average of Data 1 and Data 2
[2] = compound at 10 uM, average of Data 1 and Data 2
[3] = 1 uM, Average, read-out: % Enzyme Activity (relative to DMSO controls), Average
[4] = 1 uM, replicate Data 1, read-out: % Enzyme Activity (relative to DMSO controls), Data 1
[5] = 1 uM, replicate Data 2, read-out: % Enzyme Activity (relative to DMSO controls), Data 2
[6] = 10 uM, Average, read-out: % Enzyme Activity (relative to DMSO controls), Average
[7] = 10 uM, replicate Data 1, read-out: % Enzyme Activity (relative to DMSO controls), Data 1
[8] = 10 uM, replicate Data 2, read-out: % Enzyme Activity (relative to DMSO controls), Data 2
[9] = Average, read-out: % Enzyme Activity (relative to DMSO controls), Average
[10] = replicate Data 1, read-out: % Enzyme Activity (relative to DMSO controls), Data 1
[11] = replicate Data 2, read-out: % Enzyme Activity (relative to DMSO controls), Data 2

| SMILES | % Enzyme Activity (relative to DMSO controls), Average (NEK2; 1 uM, Average) [%] | % Enzyme Activity (relative to DMSO controls), Data 1 (NEK2; 1 uM, replicate Data 1) [%] | % Enzyme Activity (relative to DMSO controls), Data 2 (NEK2; 1 uM, replicate Data 2) [%] | % Enzyme Activity (relative to DMSO controls), Average (NEK2; 10 uM, Average) [%] | % Enzyme Activity (relative to DMSO controls), Data 1 (NEK2; 10 uM, replicate Data 1) [%] | % Enzyme Activity (relative to DMSO controls), Data 2 (NEK2; 10 uM, replicate Data 2) [%] | % Enzyme Activity (relative to DMSO controls), Average (NEK2; [1]) [%] | % Enzyme Activity (relative to DMSO controls), Data 1 (NEK2; compound at 1 uM, replicate 1) [%] | % Enzyme Activity (relative to DMSO controls), Data 2 (NEK2; compound at 1 uM, replicate 2) [%] | % Enzyme Activity (relative to DMSO controls), Average (NEK2; [2]) [%] | % Enzyme Activity (relative to DMSO controls), Data 1 (NEK2; compound at 10 uM, replicate 1) [%] | % Enzyme Activity (relative to DMSO controls), Data 2 (NEK2; compound at 10 uM, replicate 2) [%] | further results |
| --- | --- | --- | --- | --- | --- | --- | --- | --- | --- | --- | --- | --- | --- |
| Cc1nnc(C(C)C)n1C1C[C@H]2CC[C@@H](C1)N2CC[C@H](NC(=O)C1CCC(F)(F)CC1)c1ccccc1 (stereo in doubt) [Maraviroc] | 95.71 | 89.78 | 101.63 | 100.82 | 99.97 | 101.67 | – | – | – | – | – | – | – |
| Nc1nc2c(ncn2COCCO)c(=O)[nH]1 [Acyclovir] | 93.64 | 83.95 | 103.33 | 100.63 | 101.40 | 99.86 | – | – | – | – | – | – | – |
| CC(=O)OCC1=C(C(=O)O)N2C(=O)[C@@H](NC(=O)Cc3cccs3)[C@H]2SC1 [Cephalothin] | – | – | – | – | – | – | 98.03 | 94.64 | 101.41 | 78.52 | 86.91 | 70.13 | – |
| CC(C)CN(C[C@@H](O)[C@H](Cc1ccccc1)NC(=O)O[C@H]1CO[C@H]2OCC[C@H]21)S(=O)(=O)c1ccc(N)cc1 [Darunavir] | – | – | – | – | – | – | – | – | – | – | – | – | % Enzyme Activity (relative to DMSO controls), Data 1 (DAPK1; 1 uM, replicate Data 1): 101.48%; % Enzyme Activity (relative to DMSO controls), Data 1 (DAPK1; 10 uM, replicate Data 1): 82.12%; % Enzyme Activity (relative to DMSO controls), Data 1 (CK1d; replicate Data 1): 116.81%; % Enzyme Activity (relative to DMSO controls), Data 1 (VEGFR2; 1 uM): 105.45%; % Enzyme Activity (relative to DMSO controls), Data 1 (VEGFR2; 10 uM): 98.21% |
| Nc1nc2c(ncn2COC(CO)CO)c(=O)[nH]1 [Ganciclovir] | – | – | – | – | – | – | 111.12 | 112.02 | 110.21 | 89.44 | 97.24 | 81.63 | – |
| c1coc(CNc2ncnc3[nH]cnc23)c1 [Kinetin] | – | – | – | – | – | – | 107.09 | 107.23 | 106.95 | 94.02 | 94.51 | 93.52 | – |
| OC[C@@H](O)[C@@H](O)[C@H](O)[C@H](O)CO [Mannitol] | – | – | – | – | – | – | 113.06 | 110.81 | 115.31 | 102.41 | 100.39 | 104.43 | – |
| Cc1ccc(Cl)c(Nc2ccccc2C(=O)O)c1Cl [Meclofenamate] | – | – | – | – | – | – | – | – | – | – | – | – | % Enzyme Activity (relative to DMSO controls), Data 1 (DAPK1; 1 uM, replicate Data 1): 121.09%; % Enzyme Activity (relative to DMSO controls), Data 1 (DAPK1; 10 uM, replicate Data 1): 115.51%; % Enzyme Activity (relative to DMSO controls), Data 1 (CK1d; replicate Data 1): 125.84%; % Enzyme Activity (relative to DMSO controls), Data 1 (VEGFR2; 1 uM): 108.3%; % Enzyme Activity (relative to DMSO controls), Data 1 (VEGFR2; 10 uM): 109.87% |
| CC(=O)CCCCn1c(=O)c2c(ncn2C)n(C)c1=O [Pentoxifylline] | 90.71 | 91.06 | 90.35 | 88.11 | 86.43 | 89.78 | – | – | – | – | – | – | – |
| Cc1nc(=O)c2cc(CN(C)c3ccc(C(=O)N[C@@H](CCC(=O)O)C(=O)O)s3)ccc2[nH]1 [Raltitrexed] | 103.04 | 108.18 | 97.89 | 95.93 | 101.42 | 90.43 | – | – | – | – | – | – | % Enzyme Activity (relative to DMSO controls), Average (VEGFR2; 1 uM): 107.68%; % Enzyme Activity (relative to DMSO controls), Data 1 (VEGFR2; 1 uM): 107.41%; % Enzyme Activity (relative to DMSO controls), Data 2 (VEGFR2; 1 uM): 107.94%; % Enzyme Activity (relative to DMSO controls), Average (VEGFR2; 10 uM): 105.59%; % Enzyme Activity (relative to DMSO controls), Data 1 (VEGFR2; 10 uM): 105%; % Enzyme Activity (relative to DMSO controls), Data 2 (VEGFR2; 10 uM): 106.17% |
| CC(C)(C)NC(=O)[C@@H]1C[C@@H]2CCCC[C@@H]2CN1C[C@@H](O)[C@H](Cc1ccccc1)NC(=O)[C@H](CC(N)=O)NC(=O)c1ccc2ccccc2n1 [Saquinavir, reference compound] | – | – | – | – | – | – | – | – | – | – | – | – | remaining activity at 1 µM (DAPK1; [3]): 87.1%; remaining activity at 1 µM (DAPK1; [4]): 88.8%; remaining activity at 1 µM (DAPK1; [5]): 85.3%; remaining activity at 10 µM (DAPK1; [6]): 27.8%; remaining activity at 10 µM (DAPK1; [7]): 27.8%; remaining activity at 10 µM (DAPK1; [8]): 27.8%; remaining activity at 1 µM (DAPK1; compound 1μM, relative to DMSO controls, read-out: % Enzyme activity at 1μM): 87.1%; remaining activity at 10 µM (DAPK1; compound 10μM, relative to DMSO controls, read-out: % Enzyme activity at 10μM): 27.8%; remaining activity at 1 µM (CK1d; [9]): 109%; remaining activity at 1 µM (CK1d; [10]): 107%; remaining activity at 1 µM (CK1d; [11]): 111%; remaining activity at 10 µM (CK1d; [9]): 121%; remaining activity at 10 µM (CK1d; [10]): 123%; remaining activity at 10 µM (CK1d; [11]): 119% |
| Nc1nc2[nH]cnc2c(=S)[nH]1 [Thioguanine] | 92.40 | 91.41 | 93.38 | 107.92 | 110.57 | 105.26 | – | – | – | – | – | – | – |
| Cc1ccc(C(=O)c2ccc(CC(=O)O)n2C)cc1 [Tolmetin] | – | – | – | – | – | – | 115.23 | 120.50 | 109.96 | 107.09 | 112.71 | 101.47 | – |
| NC[C@H]1CC[C@H](C(=O)O)CC1 [Tranexamic acid] | – | – | – | – | – | – | – | – | – | – | – | – | remaining activity at 1 µM (NEK2; [3]): 72.5%; remaining activity at 1 µM (NEK2; [4]): 60.7%; remaining activity at 1 µM (NEK2; [5]): 84.2%; remaining activity at 10 µM (NEK2; [6]): 85.3%; remaining activity at 10 µM (NEK2; [7]): 72.1%; remaining activity at 10 µM (NEK2; [8]): 98.5% |
